≈ marks a conversion by molar mass, not a printed value. Like-named read-outs stand apart in the source and are kept apart here.
Key:
[1] = test system: Mannheimia haemolytica, 3 isolates; experiment: MIC against Mannheimia haemolytica isolates; assay type: cell-based; conditions: Mannheimia haemolytica
Procedure: (§1) Minimal inhibitory concentrations (MICs) were determined against the most prevalent pathogens in cattle (Mannheimia Haemolytica, 3 isolates) and swine (A. pleuropneumoniae, 6 isolates). In addition the activity of several compounds was tested against two bacterial species, i.e. Mannheimia haemolytica and Actinobacillus pleuropneumoniae, which are considered as the most important bacterial respiratory pathogens in cattle and swine, respectively.

[2] = test system: Actinobacillus pleuropneumoniae, 6 isolates; experiment: MIC against Actinobacillus pleuropneumoniae isolates; assay type: cell-based
Procedure: as §1

[3] = test system: M. hemolytica KB345 (Tilmicosin-sensitivity strain); experiment: Paper disc assay, M. hemolytica KB345; assay type: cell-based, Mannhemia hemolytica; conditions: Table 4
Procedure: (1) Antibacterial activities against Mannheimia and Pasteurella were determined by the following steps: • 1) M. hemolytica KB345 (Tilmicosin-sensitivity strain) and M. hemolytica KB346 (Tilmicosin-low sensitivity strain) were provided. KB 345 strain stored at −80° C. was seeded to BHIB agar medium (10 mL) by using Microbank beads (Pro-Lab) and platinum nail. After statically incubating the KB 345 strain for 24 hours at 37° C., it was seeded to maintaining slant BHIB agar medium (7 mL) by using platinum loop, further statically incubated for 24 hours at 37° C. to obtain slant. One platinum loop of KB 345 strain stored at the slant was inoculated into a large test tube charged with BHIB liquid medium (10 mL) and then incubated for 24 hours at 37° C. with shaking. • 2) A paper disc (ADVANTEC, Φ:6 mm) was impregnated with a solution of test compound and dried under reduced pressure. • 3) To a melted BHIB agar medium was inoculated 1% of the broth obtained from step 1) above to prepare a test plate. After the medium set, the paper disc prepared in step 2) above was put on the plate and it was incubated at 37° C. • 4) After one day, the inhibition zone diameter and clarity (A to E) were determined. For KB346 strain, the same procedures were repeated.

[4] = 3ISOLATES, 3 Mannheimia haemolytica isolates, broth dilution method, read-out: Range of minimum inhibitory concentrations (MIC)
[5] = 6ISOLATES, 6 Actinobacillus pleuropneumoniae isolates, broth dilution method, read-out: Range of minimum inhibitory concentrations (MIC)

SMILES	MIC [1, 4]	MIC [2, 5]	also measured
CC[C@H]1OC(=O)C[C@@H](O)[C@H](C)[C@@H](O[C@@H]2OC(C)[C@@H](O)C(N(C)C)C2O)[C@@H](CCNCCn2cc(-c3ccccc3[N+](=O)[O-])nn2)C[C@@H](C)C(=O)/C=C/C(C)=C/[C@@H]1CO (stereo partly shown) [YT718]	2 to 8 µg/mL (≈ 2.45 to 9.82 µM)	8 µg/mL (≈ 9.82 µM)	
CC[C@H]1OC(=O)C[C@@H](O)[C@H](C)[C@@H](O[C@@H]2OC(C)[C@@H](O)C(N(C)C)C2O)[C@@H](CCN(CCn2cc(-c3cccc(N)c3)nn2)Cc2ccccc2)C[C@@H](C)C(=O)/C=C/C(C)=C/[C@@H]1CO (stereo partly shown) [YT657]	2 to 4 µg/mL (≈ 2.29 to 4.57 µM)	2 µg/mL (≈ 2.29 µM)	
CC[C@H]1OC(=O)C[C@@H](O)[C@H](C)[C@@H](O[C@@H]2OC(C)[C@@H](O)C(N(C)C)C2O)[C@@H](CCN(CCn2cc(-c3ccsc3)nn2)Cc2ccc(I)cc2)C[C@@H](C)C(=O)/C=C/C(C)=C/[C@@H]1CO (stereo partly shown) [YT705]	8 µg/mL (≈ 8.06 µM)	8 µg/mL (≈ 8.06 µM)	
CCC1OC(=O)CC(O)C(C)C(OC2OC(C)C(O)C(N(C)C)C2O)C(CCn2cc(-c3ccccc3)nn2)CC(C)C(=O)C=CC(C)=CC1CI (stereo not shown) [YT113]			Inhibition zone ([3]; 10 mg/6 mm disk): 11.0 mm; Inhibition zone ([3]; 30 mg/6 mm disk): 18.0 mm; Inhibition zone ([3]; 100 mg/6 mm disk): 19.5 mm
CC[C@H]1OC(=O)C[C@@H](O)[C@H](C)[C@@H](O[C@@H]2OC(C)[C@@H](O)C(N(C)C)C2O)[C@@H](CCN(C)Cc2cn(CCNCc3ccccc3)nn2)C[C@@H](C)C(=O)/C=C/C(C)=C/[C@@H]1CO (stereo partly shown) [YT653]	1 to 8 µg/mL (≈ 1.21 to 9.67 µM)	4 to 8 µg/mL (≈ 4.84 to 9.67 µM)	
CC[C@H]1OC(=O)C[C@@H](O)[C@H](C)[C@@H](O[C@@H]2OC(C)[C@@H](O)C(N(C)C)C2O)[C@@H](CC=O)C[C@@H](C)C(=O)/C=C/C(C)=C/[C@@H]1Cn1cc(-c2ccc(-c3ccccc3)cc2)nn1 (stereo partly shown) [YT104, 23-(4-biphenyl-1H-1,2,3-triazol-1-yl)-23-Deoxy-5-O-mycaminosyltylonolide]			MIC ([1]; M. haemolytica isolate 1, read-out: MICs): 8 µg/mL (≈ 9.99 µM); MIC ([1]; M. haemolytica isolate 2, read-out: MICs): 4 µg/mL (≈ 4.99 µM); MIC ([1]; M. haemolytica isolate 3, read-out: MICs): 8 µg/mL (≈ 9.99 µM); MIC ([2]; Actinobacillus pleuropneumoniae, pleuropneumoniae isolate 1, read-out: MICs): > 16 µg/mL; MICs ([2]; pleuropneumoniae isolate 2): >16 µg/mL; MICs ([2]; pleuropneumoniae isolate 3): >16 µg/mL; MICs ([2]; pleuropneumoniae isolate 4): >16 µg/mL; MICs ([2]; pleuropneumoniae isolate 5): >16 µg/mL; MICs ([2]; pleuropneumoniae isolate 6): >16 µg/mL
CC[C@H]1OC(=O)C[C@@H](O)[C@H](C)[C@@H](O[C@@H]2OC(C)[C@@H](O)C(N(C)C)C2O)[C@@H](CCNCCn2cc(-c3ccsc3)nn2)C[C@@H](C)C(=O)/C=C/C(C)=C/[C@@H]1CO (stereo partly shown) [YT717]	2 to 8 µg/mL (≈ 2.58 to 10.3 µM)	4 µg/mL (≈ 5.15 µM)	
CC[C@H]1OC(=O)C[C@@H](O)[C@H](C)[C@@H](O[C@@H]2OC(C)[C@@H](O)C(N(C)C)C2O)[C@@H](CCN(C)Cc2cn(-c3ccc4ncccc4c3)nn2)C[C@@H](C)C(=O)/C=C/C(C)=C/[C@@H]1CO (stereo partly shown) [YT710]	2 to 4 µg/mL (≈ 2.44 to 4.87 µM)	4 µg/mL (≈ 4.87 µM)	
CC[C@H]1OC(=O)C[C@@H](O)[C@H](C)[C@@H](O[C@@H]2OC(C)[C@@H](O)C(N(C)C)C2O)[C@@H](CCNCCn2cc(-c3cc(C)c(C)cc3C)nn2)C[C@@H](C)C(=O)/C=C/C(C)=C/[C@@H]1CO (stereo partly shown) [YT723]	2 to 8 µg/mL (≈ 2.46 to 9.85 µM)	8 µg/mL (≈ 9.85 µM)	
CC[C@H]1OC(=O)C[C@@H](O)[C@H](C)[C@@H](O[C@@H]2OC(C)[C@@H](O)C(N(C)C)C2O)[C@@H](CCN(CCn2cc(-c3cccnc3)nn2)Cc2ccccc2)C[C@@H](C)C(=O)/C=C/C(C)=C/[C@@H]1CO (stereo partly shown) [YT664]	4 to 8 µg/mL (≈ 4.65 to 9.29 µM)	2 to 8 µg/mL (≈ 2.32 to 9.29 µM)	

Source: US9771389B2, “Tylosin derivatives and method for preparation thereof” (BAYER ANIMAL HEALTH GMBH, priority 2013, dated 2017)
